Results published in patent US7794753B2, “Synergistic hepatoprotective composition and a method thereof” (Council of Scientific and Industrial Research, priority 2003, dated 2010).

How the values were obtained:
[1] = test system: Paracetamol (APAP) induced hepatic injury; format: in vivo; conditions: prophylactic
Protocol: […] Formulation is extremely safe having a therapeutic index of >40. No mortality was recorded up to a dose of 2 g-kg-1 p.o. in mice.

[2] = After 72 hrs, mostly by urinary excretion; cited from earlier work
[3] = test system: restinosis following Angio plasty; conditions: animal model, compared with fish oil; cited from earlier work
[4] = test system: paracetamol (APAP) induced hepatic injury; test: Hepatoprotective activity (in vivo) of synergistic formulation and Silymarin against paracetamol (APAP) induced hepatic injury in mice (prophylactic study); conditions: 50 mg/kg p.o. + APAP
Protocol: All the list materials were administered P.O. routes in a uniform dose level of 50 mg kg-1. Formulation is extremely safe having a therapeutic index of >40. No mortality was recorded up to a dose of 2 g-kg-1 p.o. in mice.

[5] = test system: Acetaminophen (APAP) induced hepatic injury; test: Hepatoprotective activity (in vivo) of TCA and silymarin (Pre-treatment), diethyl-ether plus Acetaminophen (APAP) (prophylactic study); set-up: species or system Mice: Swiss albino; conditions: 50 mg/kg p.o. fed at 72 h, 48 h, 24 h, 1 h before diethyl-ether and 1 h after APAP 200 mg/kg i.p.

## C=C1CC[C@@H]2[C@](C)(CO)[C@H](O)CC[C@@]2(C)[C@@H]1C/C=C1/C(=O)OC[C@H]1O [AP, andrographolide]
[1]; 50 mg kg−1 + APAP
  Hepatic GSH (glutathione): 4.48 ± 0.25 μmole GSH/g liver
[1]; 100 mg kg−1 + APAP
  Serum TG, percent hepatoprotective activity (in parentheses): (63.00) %
[2]
  excreted: ~90%
[3]
  preventing the incidence and severity of restinosis following Angio plasty: twice as effective as fish oil

## CCCCCCCC/C=C/CCCCCCCCCCCCCC(=O)O [TCA, trans-tetracos-15-enoic acid]
[4]
  S. Albumin, percent hepatoprotective activity: 56.35%
[5]
  Serum Bilirubin, percent hepatoprotective activity: 56.35%
